The values that follow come from PubChem BioAssay AID332 (DTP/NCI, 2004).

This test concerns mice, ADJ-PC-20 plasma cell tumor sc, T/C %. Nature of the test: NCI In Vivo Anticancer Drug Screen. Data for tumor model ADJ-PC-20 Plasma Cell (subcutaneous) in unknown mice. The settings on record: endpoint: mean tumor weight, higher = larger tumour. The method, then: The antitumor activity of compounds was measured in mice bearing transplantable tumors. Survival or tumor size were measured and the results are expressed as the measurement made in the treated group (T) divided by the measurement made in the vehicle treated control group (C). The tumor model used in this assay is ADJ-PC-20 Plasma Cell (subcutaneous) in unknown mice

The mark [1] stands for this setting: dose: 2.0 mg/kg/injection, schedule: Q01DX010 (ip), vehicle: carboxymethylcellulose (CMC).
Setting [2] is: dose: 3.75 mg/kg/injection, schedule: Q01DX010 (ip), vehicle: carboxymethylcellulose (CMC).
Setting [3] is: dose: 7.5 mg/kg/injection, schedule: Q01DX010 (ip), vehicle: carboxymethylcellulose (CMC).
Where [4] appears, read: dose: 3.1 mg/kg/injection, schedule: Q01DX010 (ip), vehicle: carboxymethylcellulose (CMC).
Setting [5] is: dose: 12.5 mg/kg/injection, schedule: Q01DX010 (ip), vehicle: carboxymethylcellulose (CMC).
[6] abbreviates: dose: 25.0 mg/kg/injection, schedule: Q01DX010 (ip), vehicle: carboxymethylcellulose (CMC).

Where “and” joins values, the source holds several entries; their conditions need not be identical. Equal entries are not always repeated. Inconclusive results are not listed. Numbered stars: 1 amine (or outer) side, 2 acyl side, 3 side chain; on linkers, the order of the positions; unused ones are H or OH. Bridge positions count the residues as written; N and C are the ends. Square brackets hold non-standard residues; d marks the D form. Peptide text beside a SMILES is read from it. I, II: the chains in the order shown. Actinocin(9to1) = Cc1c2oc3c(C)ccc(C(=O)[*:1])c3nc-2c(C(=O)[*:2])c(N)c1=O; aThr = C[C@H](O)[C@H](N)C(=O)O; NMeV = CN[C@H](C(=O)O)C(C)C; Sar = CNCC(=O)O

Turning to `COC1=C(N)C(=O)c2nc(-c3nc(C(=O)O)c(C)c(-c4ccc(OC)c(OC)c4O)c3N)ccc2C1=O`, the T/C runs as follows: (dose: 0.02 mg/kg/injection, schedule: Q01DX010 (ip), vehicle: other) 97 % of control; (dose: 0.04 mg/kg/injection, schedule: Q01DX010 (ip), vehicle: other) 66 % of control; (dose: 0.08 mg/kg/injection, schedule: Q01DX010 (ip), vehicle: other) 71 % of control; (dose: 0.17 mg/kg/injection, schedule: Q01DX010 (ip), vehicle: other) 44 % of control; (dose: 0.34 mg/kg/injection, schedule: Q01DX010 (ip), vehicle: other) 13 % of control.

For the compound `C[C@]12C=CC(=O)C=C1CC[C@@H]1[C@@H]2C(=O)C[C@@]2(C)[C@H]1CC[C@]2(O)C(=O)CO`, the T/C (dose: 6.3 mg/kg/injection, schedule: Q01DX010 (sc), vehicle: steriod suspending solution) is 107 % of control; the T/C (dose: 12.5 mg/kg/injection, schedule: Q01DX010 (sc), vehicle: steriod suspending solution) is 51 % of control; the T/C (dose: 100.0 mg/kg/injection, schedule: Q01DX010 (sc), vehicle: steriod suspending solution) is 14 % of control.

With `CN(C)c1ccc(/C=C/c2ccnc3ccccc23)cc1`, the T/C reads like this: under setting [1], 117 % of control; (dose: 4.0 mg/kg/injection, schedule: Q01DX010 (ip), vehicle: water) 81 % of control; (dose: 16.0 mg/kg/injection, schedule: Q01DX010 (ip), vehicle: carboxymethylcellulose (CMC)) 89 % of control and 99 % of control; (dose: 16.0 mg/kg/injection, schedule: Q01DX010 (ip), vehicle: water) 78 % of control; (dose: 32.0 mg/kg/injection, schedule: Q01DX010 (ip), vehicle: carboxymethylcellulose (CMC)) 28 % of control.

In the case of `C=CC(CN1CC1)OC(C)=O` (stereo not given), the T/C is 72 % of control under setting [2] and 40 % of control under setting [3].

Regarding `CCCCn1cnc2c(=S)nc[nH]c21`, the T/C is, setting by setting: (dose: 0.8 mg/kg/injection, schedule: Q01DX010 (ip), vehicle: carboxymethylcellulose (CMC)) 74 % of control; (dose: 1.6 mg/kg/injection, schedule: Q01DX010 (ip), vehicle: carboxymethylcellulose (CMC)) 68 % of control; under setting [4], 52 % of control; (dose: 6.3 mg/kg/injection, schedule: Q01DX010 (ip), vehicle: carboxymethylcellulose (CMC)) 41 % of control; under setting [5], 15 % of control; under setting [6], 1 % of control.

Turning to `OCC1OC(n2cnc3c(=S)nc[nH]c32)C(O)C1O` (stereo not given), the T/C (dose: 0.5 mg/kg/injection, schedule: Q01DX010 (ip), vehicle: carboxymethylcellulose (CMC)) was 87 % of control; the T/C (dose: 1.0 mg/kg/injection, schedule: Q01DX010 (ip), vehicle: carboxymethylcellulose (CMC)) was 51 % of control; the T/C under setting [1] is 25 % of control; the T/C (dose: 4.0 mg/kg/injection, schedule: Q01DX010 (ip), vehicle: carboxymethylcellulose (CMC)) was 2 % of control; the T/C (dose: 8.0 mg/kg/injection, schedule: Q01DX010 (ip), vehicle: carboxymethylcellulose (CMC)) is 22 % of control.

Regarding `Cc1c2oc3c(C)ccc(C(=O)N[C@@H]4C(=O)N[C@H](C(C)C)C(=O)N5CCC[C@H]5C(=O)N(C)CC(=O)N(C)[C@@H](C(C)C)C(=O)O[C@H]4C)c3nc-2c(C(=O)N[C@@H]2C(=O)N[C@H](C(C)C)C(=O)N3CCC[C@H]3C(=O)N(C)CC(=O)N(C)[C@@H](C(C)C)C(=O)O[C@H]2C)c(N)c1=O` (I: [aThr][dV]P[Sar][NMeV] / II: [aThr][dV]P[Sar][NMeV]; ester I:1-I:C, II:1-II:C; linker I:N-II:N via Actinocin(9to1)), the T/C is 161 % of control (dose: 4.7 micrograms/kg/injection, schedule: Q01DX010 (ip), vehicle: saline); 193 % of control (dose: 6.2 micrograms/kg/injection, schedule: Q01DX010 (ip), vehicle: saline); 87 % of control (dose: 9.4 micrograms/kg/injection, schedule: Q01DX010 (ip), vehicle: saline); 93 % of control (dose: 12.5 micrograms/kg/injection, schedule: Q01DX010 (ip), vehicle: saline).

For `Clc1ncnc2nc[nH]c12`, the T/C (dose: 7.8 mg/kg/injection, schedule: Q01DX010 (ip), vehicle: carboxymethylcellulose (CMC)) is 153 % of control; the T/C (dose: 15.6 mg/kg/injection, schedule: Q01DX010 (ip), vehicle: carboxymethylcellulose (CMC)) was 86 % of control; the T/C (dose: 31.2 mg/kg/injection, schedule: Q01DX010 (ip), vehicle: carboxymethylcellulose (CMC)) was 64 % of control; the T/C (dose: 31.25 mg/kg/injection, schedule: Q01DX010 (ip), vehicle: carboxymethylcellulose (CMC)) is 14 % of control; the T/C (dose: 62.5 mg/kg/injection, schedule: Q01DX010 (ip), vehicle: carboxymethylcellulose (CMC)) was 3 % of control; the T/C (dose: 125.0 mg/kg/injection, schedule: Q01DX010 (ip), vehicle: carboxymethylcellulose (CMC)) was 4 % of control.

As for `CS(=O)(=O)OCC(O)C(O)COS(C)(=O)=O` (stereo not given), the T/C is 78 % of control (dose: 99.0 mg/kg/injection, schedule: Q01DX010 (ip), vehicle: saline); 53 % of control (dose: 188.0 mg/kg/injection, schedule: Q01DX010 (ip), vehicle: saline); 58 % of control (dose: 375.0 mg/kg/injection, schedule: Q01DX010 (ip), vehicle: saline); 7 % of control (dose: 750.0 mg/kg/injection, schedule: Q01DX010 (ip), vehicle: saline).

On to `C[C@H]1C(=O)O[C@@H]2CCN3CC=C(COC(=O)[C@](C)(O)[C@@]1(C)O)[C@H]23`, for which the T/C under setting [2] was 86 % of control; the T/C under setting [3] is 56 % of control; the T/C (dose: 15.0 mg/kg/injection, schedule: Q01DX010 (ip), vehicle: carboxymethylcellulose (CMC)) was 30 % of control; the T/C (dose: 30.0 mg/kg/injection, schedule: Q01DX010 (ip), vehicle: carboxymethylcellulose (CMC)) was 36 % of control and 44 % of control; the T/C (dose: 60.0 mg/kg/injection, schedule: Q01DX010 (ip), vehicle: carboxymethylcellulose (CMC)) is 6 % of control and 17 % of control.

On to `N=C(N)SCc1c2ccccc2c(CSC(=N)N)c2ccccc12`, for which the T/C is 119 % of control (dose: 10.0 mg/kg/injection, schedule: Q01DX010 (ip), vehicle: carboxymethylcellulose (CMC)) and 55 % of control (dose: 20.0 mg/kg/injection, schedule: Q01DX010 (ip), vehicle: carboxymethylcellulose (CMC)).

With `Nc1nc(=S)c2ncn(C3OC(CO)C(O)C3O)c2[nH]1` (stereo not given), the T/C is, setting by setting: (dose: 0.31 mg/kg/injection, schedule: Q01DX010 (ip), vehicle: carboxymethylcellulose (CMC)) 63 % of control; (dose: 0.63 mg/kg/injection, schedule: Q01DX010 (ip), vehicle: carboxymethylcellulose (CMC)) 31 % of control; (dose: 1.25 mg/kg/injection, schedule: Q01DX010 (ip), vehicle: carboxymethylcellulose (CMC)) 7 % of control; (dose: 2.5 mg/kg/injection, schedule: Q01DX010 (ip), vehicle: carboxymethylcellulose (CMC)) 1 % of control.

Regarding `CCC(=O)O[C@H]1CC[C@H]2[C@@H]3CCC4=CC(=O)CC[C@]4(C)[C@H]3CC[C@]12C`, the T/C (dose: 125.0 mg/kg/injection, schedule: Q01DX010 (sc), vehicle: steriod suspending solution) is 79 % of control; the T/C (dose: 250.0 mg/kg/injection, schedule: Q01DX010 (sc), vehicle: steriod suspending solution) was 154 % of control; the T/C (dose: 500.0 mg/kg/injection, schedule: Q01DX010 (sc), vehicle: steriod suspending solution) was 76 % of control; the T/C (dose: 1000.0 mg/kg/injection, schedule: Q01DX010 (sc), vehicle: steriod suspending solution) is 108 % of control; the T/C (dose: 2000.0 mg/kg/injection, schedule: Q01DX010 (sc), vehicle: steriod suspending solution) was 80 % of control.

As for `O=C(Nc1ccc(C2=NCCCN2)cc1)c1ccc(C(=O)Nc2ccc(C3=NCCCN3)cc2)cc1`, the T/C is 90 % of control (dose: 0.05 mg/kg/injection, schedule: Q01DX010 (ip), vehicle: water); 83 % of control (dose: 0.1 mg/kg/injection, schedule: Q01DX010 (ip), vehicle: water); 109 % of control (dose: 0.2 mg/kg/injection, schedule: Q01DX010 (ip), vehicle: water); 91 % of control and 92 % of control (dose: 0.4 mg/kg/injection, schedule: Q01DX010 (ip), vehicle: water); 65 % of control (dose: 3.12 mg/kg/injection, schedule: Q01DX010 (ip), vehicle: saline).

Take `CSc1ncnc2c1ncn2C1OC(CO)C(O)C1O` (stereo not given): the T/C by setting is: under setting [4], 84 % of control; (dose: 6.25 mg/kg/injection, schedule: Q01DX010 (ip), vehicle: carboxymethylcellulose (CMC)) 98 % of control; under setting [5], 104 % of control; under setting [6], 14 % of control.
